Measurements: patent US20240299385A1 (ReWind Therapeutics NV, priority 2021, published 2024)

Target: T1, human GPR17 receptor (Homo sapiens, UniProt Q13304)
T1 construct: host or cells: HEK-293
Assay: Calcium mobilization functional assay (Fluo-8, FLIPR TETRA) in HEK-293 hGPR17 (Gα-q assay)
Format: cell-based
Settings: antagonism of MDL29,951 (~EC80) induced Ca2+ signal; cell line (HEK-293 hGPR17 or HEK-293 Suchi5 hGPR17) not given
Procedure, shortened: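 Fluo-8-loaded HEK-293 hGPR17 cells (60 min dye loading, room temperature) were preincubated with compound for twenty minutes, then challenged with agonist MDL29,951 at ~EC80, 500 nM. Intracellular calcium release via Gα-q was recorded as FLIPR fluorescence for a further 2 minutes; compounds tested in duplicate.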

T1 sequence (Q13304 whole entry): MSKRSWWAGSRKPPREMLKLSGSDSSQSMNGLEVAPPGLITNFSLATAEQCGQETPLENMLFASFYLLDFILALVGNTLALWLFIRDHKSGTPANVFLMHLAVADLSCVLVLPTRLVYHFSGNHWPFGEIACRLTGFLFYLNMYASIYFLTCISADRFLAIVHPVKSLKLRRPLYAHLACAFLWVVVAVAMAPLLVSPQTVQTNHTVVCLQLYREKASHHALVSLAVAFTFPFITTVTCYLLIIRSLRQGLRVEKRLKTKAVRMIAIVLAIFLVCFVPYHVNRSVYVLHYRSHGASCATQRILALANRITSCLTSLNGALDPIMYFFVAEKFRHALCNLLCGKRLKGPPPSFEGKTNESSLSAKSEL

SMILES | IC50
N#Cc1ccc(NS(=O)(=O)c2c[nH]cc2-c2cccc(F)c2)c(F)c1 [Cpd 230, N-(4-cyano-2-fluoro-phenyl)-4-(3-fluorophenyl)-1H-pyrrole-3-sulfonamide] | < 0.5 µM
N#Cc1ccc(NS(=O)(=O)c2c[nH]cc2-c2ccccc2F)c(F)c1 [Cpd 231, N-(4-cyano-2-fluoro-phenyl)-4-(2-fluorophenyl)-1H-pyrrole-3-sulfonamide] | 0.5 to 5 µM
O=S(=O)(Nc1cc(F)c(OC(F)F)cc1F)c1c[nH]c(-c2ccccc2)c1 [Cpd 232, N-[4-(difluoromethoxy)-2,5-difluoro-phenyl]-5-phenyl-1H-pyrrole-3-sulfonamide] | < 0.5 µM
O=S(=O)(Nc1ccc(OC(F)F)nc1)c1c[nH]c(-c2ccccc2)c1 [Cpd 233, N-[6-(difluoromethoxy)-3-pyridyl]-5-phenyl-1H-pyrrole-3-sulfonamide] | 0.5 to 5 µM
O=S(=O)(Nc1cc(F)c(C(F)(F)F)cc1F)c1c[nH]c(-c2cc(CO)ccc2F)c1 [Cpd 234, N-[2,5-difluoro-4-(trifluoromethyl)phenyl]-5-[2-fluoro-5-(hydroxymethyl)phenyl]-1H-pyrrole-3-sulfonamide] | < 0.5 µM
COCc1ccc(F)c(-c2cc(S(=O)(=O)Nc3cc(F)c(C(F)(F)F)cc3F)c[nH]2)c1 [Cpd 235, N-[2,5-difluoro-4-(trifluoromethyl)phenyl]-5-[2-fluoro-5-(methoxymethyl)phenyl]-1H-pyrrole-3-sulfonamide] | 0.5 to 5 µM
N#Cc1ccc(NS(=O)(=O)c2c[nH]c(C3CC3)c2)c(F)c1 [Cpd 236, N-(4-cyano-2-fluoro-phenyl)-5-cyclopropyl-1H-pyrrole-3-sulfonamide] | 5 to 50 µM
CCOc1cc(F)c(NS(=O)(=O)c2c[nH]c(-c3ccccn3)c2)cc1F [Cpd 237, N-(4-ethoxy-2,5-difluoro-phenyl)-5-(2-pyridyl)-1H-pyrrole-3-sulfonamide] | 0.5 to 5 µM
N#Cc1ccc(NS(=O)(=O)c2c[nH]cc2C2=CCCC2)c(F)c1 [Cpd 238, N-(4-cyano-2-fluorophenyl)-4-(cyclopent-1-en-1-yl)-1H-pyrrole-3-sulfonamide] | < 0.5 µM
O=S(=O)(Nc1ccc(OC(F)F)cc1F)c1c[nH]c(-c2ccccn2)c1 [Cpd 239, N-[4-(difluoromethoxy)-2-fluoro-phenyl]-5-(2-pyridyl)-1H-pyrrole-3-sulfonamide] | 0.5 to 5 µM
CCOc1ccccc1-c1cc(S(=O)(=O)Nc2ccc(C#N)cc2F)c[nH]1 [Cpd 240, N-(4-cyano-2-fluoro-phenyl)-5-(2-ethoxyphenyl)-1H-pyrrole-3-sulfonamide] | 0.5 to 5 µM
CC(C)Oc1cc(F)c(NS(=O)(=O)c2c[nH]c(-c3ccccn3)c2)cc1F [Cpd 241, N-(2,5-difluoro-4-isopropoxy-phenyl)-5-(2-pyridyl)-1H-pyrrole-3-sulfonamide] | 5 to 50 µM
N#Cc1ccc(NS(=O)(=O)c2c[nH]cc2C2CCCC2)c(F)c1 [Cpd 242, N-(4-cyano-2-fluoro-phenyl)-4-cyclopentyl-1H-pyrrole-3-sulfonamide] | 5 to 50 µM
O=S(=O)(Nc1cc(F)c(C(F)(F)F)cc1F)c1c[nH]c(-c2nccn2CC(F)(F)F)c1 [Cpd 243, N-[2,5-difluoro-4-(trifluoromethyl)phenyl]-5-[1-(2,2,2-trifluoroethyl)imidazol-2-yl]-1H-pyrrole-3-sulfonamide] | 5 to 50 µM

Continued, values first:

IC50 | SMILES
< 0.5 µM | N#Cc1ccc(NS(=O)(=O)c2c[nH]c(-c3ccccc3OC(F)F)c2)c(F)c1 [Cpd 244, N-(4-cyano-2-fluoro-phenyl)-5-[2-(difluoromethoxy)phenyl]-1H-pyrrole-3-sulfonamide]
5 to 50 µM | O=C1CCCN1c1cc(S(=O)(=O)Nc2cc(F)c(C(F)(F)F)cc2F)c[nH]1 [Cpd 245, N-[2,5-difluoro-4-(trifluoromethyl)phenyl]-5-(2-oxopyrrolidin-1-yl)-1H-pyrrole-3-sulfonamide]
< 0.5 µM | O=S(=O)(Nc1cc(F)c(OC(F)(F)F)cc1F)c1c[nH]c(-c2ccccn2)c1 [Cpd 246, N-[2,5-difluoro-4-(trifluoromethoxy)phenyl]-5-(2-pyridyl)-1H-pyrrole-3-sulfonamide]
0.5 to 5 µM | COc1ccnc(F)c1-c1cc(S(=O)(=O)Nc2cc(F)c(C(F)(F)F)cc2F)c[nH]1 [Cpd 247, N-[2,5-difluoro-4-(trifluoromethyl)phenyl]-5-(2-fluoro-4-methoxy-3-pyridyl)-1H-pyrrole-3-sulfonamide]
0.5 to 5 µM | CCn1ccnc1-c1cc(S(=O)(=O)Nc2cc(F)c(C(F)(F)F)cc2F)c[nH]1 [Cpd 248, N-[2,5-difluoro-4-(trifluoromethyl)phenyl]-5-(1-ethylimidazol-2-yl)-1H-pyrrole-3-sulfonamide]
0.5 to 5 µM | Cc1c(F)cccc1-c1cc(S(=O)(=O)Nc2ccc(C#N)cc2F)c[nH]1 [Cpd 249, N-(4-cyano-2-fluoro-phenyl)-5-(3-fluoro-2-methyl-phenyl)-1H-pyrrole-3-sulfonamide]
0.5 to 5 µM | Cc1ccc(-c2cc(S(=O)(=O)Nc3ccc(C#N)cc3F)c[nH]2)c(Cl)c1 [Cpd 250, 5-(2-chloro-4-methyl-phenyl)-N-(4-cyano-2-fluoro-phenyl)-1H-pyrrole-3-sulfonamide]
5 to 50 µM | COc1ccc(-c2cc(S(=O)(=O)Nc3ccc(C#N)cc3F)c[nH]2)c(C)c1 [Cpd 251, N-(4-cyano-2-fluoro-phenyl)-5-(4-methoxy-2-methyl-phenyl)-1H-pyrrole-3-sulfonamide]
0.5 to 5 µM | Cc1cccc(-c2cc(S(=O)(=O)Nc3ccc(C#N)cc3F)c[nH]2)c1C [Cpd 252, N-(4-cyano-2-fluoro-phenyl)-5-(2,3-dimethylphenyl)-1H-pyrrole-3-sulfonamide]
0.5 to 5 µM | Cc1c(Cl)cccc1-c1cc(S(=O)(=O)Nc2ccc(C#N)cc2F)c[nH]1 [Cpd 253, 5-(3-chloro-2-methyl-phenyl)-N-(4-cyano-2-fluoro-phenyl)-1H-pyrrole-3-sulfonamide]
0.5 to 5 µM | Cc1ccc(Cl)c(-c2cc(S(=O)(=O)Nc3ccc(C#N)cc3F)c[nH]2)c1 [Cpd 254, 5-(2-chloro-5-methyl-phenyl)-N-(4-cyano-2-fluoro-phenyl)-1H-pyrrole-3-sulfonamide]
0.5 to 5 µM | Cc1cc(F)ccc1-c1cc(S(=O)(=O)Nc2ccc(C#N)cc2F)c[nH]1 [Cpd 255, N-(4-cyano-2-fluoro-phenyl)-5-(4-fluoro-2-methyl-phenyl)-1H-pyrrole-3-sulfonamide]
< 0.5 µM | N#Cc1ccc(NS(=O)(=O)c2c[nH]c(-c3cc(F)ccc3Cl)c2)c(F)c1 [Cpd 256, 5-(2-chloro-5-fluoro-phenyl)-N-(4-cyano-2-fluoro-phenyl)-1H-pyrrole-3-sulfonamide]
< 0.5 µM | COc1ccc(Cl)c(-c2cc(S(=O)(=O)Nc3ccc(C#N)cc3F)c[nH]2)c1 [Cpd 257, 5-(2-chloro-5-methoxy-phenyl)-N-(4-cyano-2-fluoro-phenyl)-1H-pyrrole-3-sulfonamide]
< 0.5 µM | N#Cc1ccc(NS(=O)(=O)c2c[nH]c(-c3ccc(F)cc3Cl)c2)c(F)c1 [Cpd 258, 5-(2-chloro-4-fluoro-phenyl)-N-(4-cyano-2-fluoro-phenyl)-1H-pyrrole-3-sulfonamide]
0.5 to 5 µM | COc1cc(-c2cc(S(=O)(=O)Nc3ccc(C#N)cc3F)c[nH]2)ccc1F [Cpd 259, N-(4-cyano-2-fluoro-phenyl)-5-(4-fluoro-3-methoxy-phenyl)-1H-pyrrole-3-sulfonamide]
